Legend:
[1] = molecular target: T1, ETA receptor in MMQ cells (rET-A) (Rattus norvegicus, UniProt P26684); assay: ETA/ETB selectivity: (125I)ET-1 competition binding, ETA assay in MMQ cell membranes (rET-A); details: MMQ cell membranes; 0.1 nM (125I)ET-1; read-out: rET-A IC50
T1 construct: endogenous in cells; host or cells: MMQ rat pituitary cells (membranes)
T1 sequence (P26684 21-426): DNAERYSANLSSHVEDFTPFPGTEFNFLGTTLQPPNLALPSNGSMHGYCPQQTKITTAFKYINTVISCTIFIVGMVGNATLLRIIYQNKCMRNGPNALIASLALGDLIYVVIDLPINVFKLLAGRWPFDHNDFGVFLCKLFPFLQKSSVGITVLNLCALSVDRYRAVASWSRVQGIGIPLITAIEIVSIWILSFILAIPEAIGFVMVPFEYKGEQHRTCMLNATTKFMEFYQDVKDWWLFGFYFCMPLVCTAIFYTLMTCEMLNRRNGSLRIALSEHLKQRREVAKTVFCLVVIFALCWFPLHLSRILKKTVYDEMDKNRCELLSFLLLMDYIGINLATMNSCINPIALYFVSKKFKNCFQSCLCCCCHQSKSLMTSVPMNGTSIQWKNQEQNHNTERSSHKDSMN

human ETA receptor = molecular target: T2, human ETA receptor (Homo sapiens, UniProt P25101); assay: ETA/ETB selectivity: (125I)ET-1 competition binding, CHO cells transfected with human ETA receptor (hET-A); details: CHO cells transfected with human ETA receptor; 0.1 nM (125I)ET-1; read-out: hET-A IC50
T2 construct: expressed in transfected cells; host or cells: CHO cells, permanently transfected
T2 sequence (P25101 21-427): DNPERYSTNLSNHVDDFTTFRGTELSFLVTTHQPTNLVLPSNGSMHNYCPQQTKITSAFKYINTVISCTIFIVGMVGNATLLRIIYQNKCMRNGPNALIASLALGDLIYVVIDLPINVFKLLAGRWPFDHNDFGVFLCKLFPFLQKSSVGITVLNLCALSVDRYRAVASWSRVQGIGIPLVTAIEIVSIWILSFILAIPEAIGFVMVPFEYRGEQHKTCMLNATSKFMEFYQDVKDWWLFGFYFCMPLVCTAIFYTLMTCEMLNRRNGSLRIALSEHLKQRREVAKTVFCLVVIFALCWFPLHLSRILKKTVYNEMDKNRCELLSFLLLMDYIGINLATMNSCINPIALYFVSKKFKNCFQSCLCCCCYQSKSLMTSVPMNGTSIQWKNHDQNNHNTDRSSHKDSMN
Description: The mixture was centrifuged at 1000×g for 10 min. The supernatant was collected and centrifuged at 60,000×g for 60 min. The precipitate was resuspended in 20 mM Tris, pH 7.4 containing protease inhibitor and centrifuged again. The final membrane pellet was resuspended in 20 mM Tris, pH 7.4 containing protease inhibitors and stored at −80° C. until used. Protein content was determined by the Bio-Rad dye-binding protein assay.
Binding assays were performed in 96-well microtiter plates pretreated with 0.1% BSA. […] After incubation, unbound ligands were separated from bound ligands by a vacuum filtration method using glass-fiber filter strips in PHD cell harvesters (Cambridge Technology, Inc., MA), washing the filter strips three times with saline (1 mL). Nonspecific binding was determined in the presence of 1 μM ET-1. IC50 values are calculated using an average of at least two separate determinations.

human ETB receptor = molecular target: T3, human ETB receptor (Homo sapiens, UniProt P24530); assay: ETA/ETB selectivity: (125I)ET-3 competition binding, CHO cells transfected with human ETB receptor (hET-B); details: CHO cells transfected with human ETB receptor; 0.1 nM (125I)ET-3; read-out: hET-B IC50
T3 construct: expressed in transfected cells; host or cells: CHO cells, permanently transfected
T3 sequence (P24530 27-442): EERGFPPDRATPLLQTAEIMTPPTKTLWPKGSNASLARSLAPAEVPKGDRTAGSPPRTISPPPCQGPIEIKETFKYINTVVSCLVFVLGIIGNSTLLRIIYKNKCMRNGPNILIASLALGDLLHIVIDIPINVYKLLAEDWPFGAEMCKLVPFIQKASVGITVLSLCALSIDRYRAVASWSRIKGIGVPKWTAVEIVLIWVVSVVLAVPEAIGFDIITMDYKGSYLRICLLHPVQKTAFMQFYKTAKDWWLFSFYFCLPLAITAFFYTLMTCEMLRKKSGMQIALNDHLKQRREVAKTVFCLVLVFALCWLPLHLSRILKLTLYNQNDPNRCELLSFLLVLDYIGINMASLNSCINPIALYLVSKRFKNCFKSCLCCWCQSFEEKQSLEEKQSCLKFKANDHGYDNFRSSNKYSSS
Description: MMQ cells, porcine cerebellar tissues (known to contain ETB receptors) and chinese hamster ovary cells (CHO) permanently transfected with the human ETA or ETB receptor were homogenized in 25 ml of 10 mM Hepes (pH 7.4) containing 0.25 M sucrose and a protease inhibitor [50 mM EDTA, 0.1 mM PMSF, 5 μg/ml Pepstatin A, and 0.025% Bacitracin] using a micro ultrasonic cell disrupter. The mixture was centrifuged at 1000×g for 10 min. The supernatant was collected and centrifuged at 60,000×g for 60 min. The precipitate was resuspended in 20 mM Tris, pH 7.4 containing protease inhibitor and centrifuged again. The final membrane pellet was resuspended in 20 mM Tris, pH 7.4 containing protease inhibitors and stored at −80° C. until used. Protein content was determined by the Bio-Rad dye-binding protein assay.
Binding assays were performed in 96-well microtiter plates pretreated with 0.1% BSA. Membranes prepared from cells were diluted 100 fold in Buffer B (20 mM Tris, 100 mM NaCl, 10 mM MgCl2, pH 7.4, with 0.2% BSA, 0.1 mM PMSF, 5 μg/mL Pepstatin A, 0.025% bacitracin, and 50 mM EDTA) to a final concentration of 0.2 mg/mL of protein. In competition binding studies, membranes (0.02 mg) were incubated with 0.1 nM of (^125I)ET-1 (for ETA assay in MMQ or CHO cells transfected with human ETA receptor) or (^125I)ET-3 (for ETB assay in porcine cerebellum or CHO cells transfected with human ETB receptor) in Buffer B (final volume: 0.2 mL) in the presence of increasing concentrations of the test compound for 3 hours at 25° C. After incubation, unbound ligands were separated from bound ligands by a vacuum filtration method using glass-fiber filter strips in PHD cell harvesters (Cambridge Technology, Inc., MA), washing the filter strips three times with saline (1 mL). Nonspecific binding was determined in the presence of 1 μM ET-1. IC50 values are calculated using an average of at least two separate determinations.

IC50 [1]	IC50 (human ETA receptor)	IC50 (human ETB receptor)	SMILES
0.3 nM	0.36 nM	14000 nM	CCCC(CCC)N(C(=O)CN1CC(c2cc(OC)c3c(c2)OCO3)C(C(=O)O)C1CCC1OCCO1)c1ccc(F)c(C)c1 (stereo not drawn) [compound 513]
1 nM	0.43 nM	12000 nM	CCCCN(CCCC)C(=O)CN1CC(c2ccc3c(c2)OCO3)C(C(=O)O)C1CCc1ccccc1OC (stereo not drawn) [compound 517]
1.4 nM	0.92 nM	52000 nM	CCCCN(CCCC)C(=O)CN1CC(c2ccc3c(c2)OCO3)C(C(=O)O)C1CC(C)(C)CCC (stereo not drawn) [compound 503]
0.42 nM	0.33 nM	290 nM	CCCCN(CCCO)C(=O)CN1CC(c2ccc3c(c2)OCO3)C(C(=O)O)C1c1ccc(OC)cc1 (stereo not drawn) [compound 523]
2 nM	5.7 nM	68000 nM	CCCCN(CCCC)C(=O)CN1CC(c2ccc3c(c2)OCO3)C(C(=O)O)C1CCC1CCCCO1 (stereo not drawn) [compound 505]
0.79 nM	0.82 nM	890 nM	CCCON(CCC)C(=O)CN1CC(c2ccc3c(c2)OCO3)C(C(=O)O)C1c1ccc(OC)cc1 (stereo not drawn) [compound 524]
0.5 nM	1 nM	11000 nM	CCCCN(CCCC)C(=O)CN1CC(c2ccc3c(c2)OCO3)C(C(=O)O)C1COc1ccccc1OC (stereo not drawn) [compound 510]

The next lines start with the compound.

SMILES	IC50 [1]	IC50 (human ETA receptor)	IC50 (human ETB receptor)
CCCCN(C(=O)CN1CC(c2ccc3c(c2)OCO3)C(C(=O)O)C1c1ccc(OC)cc1)c1cccnc1 (stereo not drawn) [compound 531]	1.2 nM	0.71 nM	870 nM
CCCCN(CCCC)C(=O)CN1C[C@H](c2ccc3c(c2)CCO3)[C@@H](C(=O)O)[C@@H]1CC(C)(C)CCC [compound 515]	1.6 nM	6.7 nM	> 100000 nM
CCCCN(CCCC)C(=O)CN1CC(c2cc(OC)c3c(c2)OCO3)C(C(=O)O)C1CCC1OCCO1 (stereo not drawn) [compound 509]	0.56 nM	0.51 nM	23000 nM
CCCCN(CCCC)C(=O)CN1CC(c2cc(OC)c3c(c2)OCO3)C(C(=O)O)C1CC(C)(C)C1OCCO1 (stereo not drawn) [compound 516]	0.71 nM	1.8 nM	37000 nM
CCCCN(CCCC)C(=O)CN1CC(c2ccc3c(c2)OCO3)C(C(=O)O)C1CCC1OCCO1 (stereo not drawn) [compound 504]	3.1 nM	4.6 nM	> 100000 nM
CCCCN(CCCC)C(=O)CN1C[C@H](c2ccc3c(c2)OCO3)[C@@H](C(=O)O)[C@@H]1CC(C)(C)CCC [compound 537]	0.96 nM	0.23 nM	1900 nM
CCCCN(CCCC)C(=O)CN1CC(c2ccc3c(c2)OCO3)C(C(=O)O)C1CC(C)(C)C1OCCO1 (stereo not drawn) [compound 507]	3 nM	1.63 nM	> 100000 nM
CCCCN(CCCC)C(=O)CN1CC(c2ccc3c(c2)OCO3)C(C(=O)O)C1CC(C)(C)C=C(C)C (stereo not drawn) [compound 506]	3.2 nM	3 nM	61000 nM

Source: patent US7208517B1, “Endothelin antagonists” (Abbott Labortories, priority 1994, dated 2007)
